Reference: patent US6413959B1, “Method of treating depression with arylglycinamide derivatives” (Boehringer Ingelheim KG, priority 1995, dated 2002)
Where a name gives a salt, the structure may show the parent alone.

What was measured:
[1] = molecular target: T1, NK1-receptor (substance P-receptor) (Homo sapiens, UniProt P25103); experiment: NK1-receptor affinity, displacement of 125I-labelled substance P on IM-9 cells; type: binding; details: human lymphoblastoma cells (IM-9) with cloned NK1-receptors
T1 construct: expressed in transfected cells; host or cells: IM-9 human lymphoblastoma cells
T1 sequence (P25103 whole entry): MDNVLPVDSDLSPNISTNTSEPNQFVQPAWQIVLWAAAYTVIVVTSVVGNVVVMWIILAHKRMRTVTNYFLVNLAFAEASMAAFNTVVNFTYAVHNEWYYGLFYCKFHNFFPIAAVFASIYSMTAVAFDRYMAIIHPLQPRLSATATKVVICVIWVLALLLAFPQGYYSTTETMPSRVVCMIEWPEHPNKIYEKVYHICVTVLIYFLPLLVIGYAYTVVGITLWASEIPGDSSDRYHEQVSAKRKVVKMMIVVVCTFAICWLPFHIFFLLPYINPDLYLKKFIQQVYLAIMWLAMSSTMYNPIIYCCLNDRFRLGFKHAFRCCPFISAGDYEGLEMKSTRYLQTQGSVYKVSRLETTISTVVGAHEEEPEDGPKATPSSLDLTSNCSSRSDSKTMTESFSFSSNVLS

Structure (SMILES) | Ki [1] | melting point
CCN(CCc1cc(C(F)(F)F)cc(C(F)(F)F)c1)C(=O)C(c1ccccc1)N1CCC(N2CCCCC2)CC1 (centres unmarked) [Example 73] | 1.7 nM | 
CN(CCc1cc(C(F)(F)F)cc(C(F)(F)F)c1)C(=O)C(c1ccccc1)N1CCN(c2ccccc2)CC1 (centres unmarked) [Example 60] |  | 113 to 123 °C
CN(CCc1cc(C(F)(F)F)cc(C(F)(F)F)c1)C(=O)C(c1ccccc1)N1CCC(N2CCCC2)CC1 (centres unmarked) [Example 52] | 1.1 nM | 133 to 143 °C
CCC(=O)NC1CCN(C(C(=O)NCc2cc(C(F)(F)F)cc(C(F)(F)F)c2)c2ccccc2)CC1 (racemic) [Example 2, (R,S)-4-propionylamino-1-[2-phenylacetic acid-N(3,5-bis-trifluoromethyl-benzyl)-amide]-piperidine] |  | 189 to 191 °C
NC(=O)C1(N2CCCCC2)CCN(C(C(=O)NCc2cc(C(F)(F)F)cc(C(F)(F)F)c2)c2ccccc2)CC1 (centres unmarked) [Example 11] |  | > 220 °C (dec.)
CN(CCc1cc(C(F)(F)F)cc(C(F)(F)F)c1)C(=O)C(c1ccccc1)N1CCC(c2ccccc2)CC1.Cl (centres unmarked) |  | 106 to 110 °C
O=C(NCc1cc(C(F)(F)F)cc(C(F)(F)F)c1)C(c1ccccc1)N1CCC(n2c(=O)[nH]c3cccnc32)CC1 (centres unmarked) [Example 15] |  | 208 to 210 °C
CC(=O)N1CCN(C2CCN(C(C(=O)NCc3cc(C(F)(F)F)cc(C(F)(F)F)c3)c3ccccc3)CC2)C1=O (centres unmarked) [Example 13] |  | 87 to 95 °C
O=C(NCCCc1ccc(C(F)(F)F)cc1C(F)(F)F)C(c1ccccc1)N1CCN(C2CCCCC2)CC1 (centres unmarked) [Example 17] |  | 118 to 123 °C
O=C(O)CN(Cc1cc(C(F)(F)F)cc(C(F)(F)F)c1)C(=O)C(c1ccccc1)N1CCN(C2CCCCC2)CC1 (centres unmarked) [Example 22] |  | 70 to 73 °C
CN(CCc1cc(C(F)(F)F)cc(C(F)(F)F)c1)C(=O)C(c1ccccc1)N1CCC(C(N)=O)(c2ccccc2)CC1.Cl (centres unmarked) |  | 127 to 137 °C
CC(C)N(CCc1cc(C(F)(F)F)cc(C(F)(F)F)c1)C(=O)C(c1ccccc1)N1CCC(N2CCCCC2)CC1 (centres unmarked) [Example 72] | 6.8 nM | 
O=C(NCCc1cc(C(F)(F)F)cc(C(F)(F)F)c1)C(c1ccccc1)N1CCC(N2CCCCC2)CC1 (centres unmarked) [Example 25] |  | 192 to 199 °C
CN(CCc1cc(C(F)(F)F)cc(C(F)(F)F)c1)C(=O)C(c1ccccc1)N1CCC(N2CCCCC2)CC1 (centres unmarked) (as salt: hydrochloride) [Example 33] |  | > 240 °C
CN(CCc1cc(C(F)(F)F)cc(C(F)(F)F)c1)C(=O)C(c1ccccc1)N1CCN(C2CCC2)CC1 (centres unmarked) [Example 68] | 1.5 nM | 236 to 238 °C (dec.)
COc1ccc(C(C(=O)N(C)CCc2cc(C(F)(F)F)cc(C(F)(F)F)c2)N2CCN(C3CCCCC3)CC2)cc1OC (centres unmarked) [Example 70] | 2.8 nM | 123 to 133 °C (dec.)
CN(CCc1cc(C(F)(F)F)cc(C(F)(F)F)c1)C(=O)C(c1ccccc1)N1CCC(N2CCCCC2)CC1 (centres unmarked) [Example 33] | 1.3 nM | 
O=C(C(c1ccccc1)N1CCC(N2CCCCC2)CC1)N(CCc1cc(C(F)(F)F)cc(C(F)(F)F)c1)Cc1ccccc1 (centres unmarked) [Example 76] | 7 nM | 
CN(CCc1cc(C(F)(F)F)cc(C(F)(F)F)c1)C(=O)C(c1ccc(Cl)c(Cl)c1)N1CCC(N2CCCCC2)CC1 (centres unmarked) [Example 59] | 4.2 nM | 244 to 246 °C (dec.)

Structure (SMILES) | Ki [1] | melting point
CN(CCc1ccc(C(F)(F)F)cc1C(F)(F)F)C(=O)C(c1ccccc1)N1CCC(N2CCCCC2)CC1 (centres unmarked) [Example 74] | 11.8 nM | 
O=C(NCc1cc(C(F)(F)F)cc(C(F)(F)F)c1)C(c1ccccc1)N1CCN(CCC2CC2)CC1 (centres unmarked) [Example 18] |  | 134 to 136 °C
CN(CCc1cc(C(F)(F)F)cc(C(F)(F)F)c1)C(=O)C(c1ccccc1)N1CCN(CCc2ccccc2)CC1 (centres unmarked) [Example 65] | 9.2 nM | 148 to 156 °C
CN(CCc1cc(C(F)(F)F)cc(C(F)(F)F)c1)C(=O)C(c1ccccc1)N1CCN(C2CCCCCC2)CC1 (centres unmarked) [Example 53] | 2.3 nM | 110 to 120 °C
O=C(NCc1cc(C(F)(F)F)cc(C(F)(F)F)c1)C(c1ccccc1)N1CCC(Nc2ccccn2)CC1 (centres unmarked) [Example 14] |  | 164 to 166 °C
Cl.O=C(NCc1cc(C(F)(F)F)cc(C(F)(F)F)c1)C(c1ccccc1)N1CCC(N2C(=O)CCC2=O)CC1 (centres unmarked) |  | 110 to 115 °C
CN(CCc1cc(C(F)(F)F)cc(C(F)(F)F)c1)C(=O)C(c1ccccc1)N1CCC(C#N)(c2ccccc2)CC1.Cl (centres unmarked) [Example 75] | 180 nM | 91 to 98 °C
Cc1nc2ccccc2n1C1CCN(C(C(=O)NCc2cc(C(F)(F)F)cc(C(F)(F)F)c2)c2ccccc2)CC1 (centres unmarked) |  | 107 to 111 °C
CN(CCc1cc(C(F)(F)F)cc(C(F)(F)F)c1)C(=O)C(c1ccccc1)N1CCN(CC2CC2)CC1 (centres unmarked) [Example 66] | 1.4 nM | 113 to 117 °C (dec.)
O=C(NCc1cc(C(F)(F)F)cc(C(F)(F)F)c1)C(c1ccccc1)N1CCC2(CC1)C(=O)NCN2c1ccccc1 (centres unmarked) |  | 205 to 210 °C
O=C(Nc1ccccc1)NC1CCN(C(C(=O)NCc2cc(C(F)(F)F)cc(C(F)(F)F)c2)c2ccccc2)CC1 (centres unmarked) [Example 10] |  | 218 to 223 °C
O=C(NCc1cc(C(F)(F)F)cc(C(F)(F)F)c1)C(c1ccccc1)N1CCC(N(C(=O)c2ccccc2)c2ccccc2)CC1 (centres unmarked) |  | 102 to 105 °C
Cl.O=C(NCc1cc(C(F)(F)F)cc(C(F)(F)F)c1)C(c1ccccc1)N1CCC(N(C(=O)c2ccccc2)c2ccccn2)CC1 (centres unmarked) |  | 145 to 151 °C
CN(CCc1cc(C(F)(F)F)cc(C(F)(F)F)c1)C(=O)C(c1ccccc1)N1CCC(N2CCCC2)CC1 (centres unmarked) [Example 45] | 1.6 nM | 
O=C(NC1CCN(C(C(=O)NCc2cc(C(F)(F)F)cc(C(F)(F)F)c2)c2ccccc2)CC1)c1ccccc1 (centres unmarked) [Example 20] |  | 180 to 185 °C
CN(CCc1cc(C(F)(F)F)cc(C(F)(F)F)c1)C(=O)C(c1ccccc1)N1CCC2(CC1)C(=O)NCN2c1ccccc1 (centres unmarked) |  | 265 to 268 °C (dec.)
CN(CCc1cc(C(F)(F)F)cc(C(F)(F)F)c1)C(=O)C(c1ccccc1)N1CCC(n2c(=O)[nH]c3ccccc32)CC1 (centres unmarked) |  | 177 to 187 °C
CN(CCc1cc(C(F)(F)F)cc(C(F)(F)F)c1)C(=O)C(c1ccccc1)N1CCC(N2CCOCC2)CC1 (centres unmarked) [Example 46] | 1.4 nM | 
O=C(Nc1ccccc1)C1CCN(C(C(=O)NCc2cc(C(F)(F)F)cc(C(F)(F)F)c2)c2ccccc2)CC1 (centres unmarked) [Example 19] |  | > 240 °C (dec.)

Other lines, results leading:

Ki [1] | melting point | Structure (SMILES)
1.4 nM | 235 to 238 °C | O=C(NCCc1cc(C(F)(F)F)cc(C(F)(F)F)c1)C(c1ccccc1)N1CCN(C2CCCCC2)CC1 (centres unmarked) [Example 3]
 | > 240 °C | O=C(NCc1cc(C(F)(F)F)cc(C(F)(F)F)c1)C(c1ccc(F)cc1)N1CCN(C2CCCCC2)CC1 (centres unmarked) [Example 31]
 | 124 to 129 °C | O=C(NCc1cc(C(F)(F)F)cc(C(F)(F)F)c1)C(c1ccccc1)N1CCN(C2CCCCC2)CC1 (racemic) [Example 1, (R,S)-1-cyclohexyl-piperazinyl-4-[2-phenylacetic acid-N-(3,5-bis-trifluoromethylbenzyl)amide]]
 | 215 to 224 °C | O=C(NCCc1cc(C(F)(F)F)cc(C(F)(F)F)c1)C(c1ccccc1Cl)N1CCN(C2CCCCC2)CC1 (centres unmarked) [Example 63]
 | 112 to 118 °C | O=C(NCc1cc(C(F)(F)F)cc(C(F)(F)F)c1)C(c1ccc(Cl)cc1)N1CCN(C2CCCCC2)CC1 (centres unmarked) [Example 26]
 | 120 to 122 °C | O=C(NCc1cc(C(F)(F)F)cc(C(F)(F)F)c1)C(c1ccccc1Cl)N1CCN(C2CCCCC2)CC1 (centres unmarked) [Example 29]
 | 118 to 120 °C | O=C(NCc1cc(C(F)(F)F)cc(C(F)(F)F)c1)C(c1ccccc1Br)N1CCN(C2CCCCC2)CC1 (centres unmarked) [Example 28]
 | > 240 °C (dec.) | O=C(NCc1cc(C(F)(F)F)cc(C(F)(F)F)c1)C(c1ccccc1)N1CCC(N2CCCCC2)CC1 (centres unmarked) [Example 7]
2.1 nM | 87 to 97 °C | CN(CCc1cc(C(F)(F)F)cc(C(F)(F)F)c1)C(=O)C(c1ccc2c(c1)OCO2)N1CCN(C2CCCCC2)CC1 (centres unmarked) [Example 71]
 | 248 to 254 °C | O=C(NCc1cc(C(F)(F)F)cc(C(F)(F)F)c1)C(c1ccc(Cl)c(Cl)c1)N1CCN(C2CCCCC2)CC1 (centres unmarked) [Example 23]
 | 97 to 99 °C | O=C(NCc1cc(C(F)(F)F)cc(C(F)(F)F)c1)C(c1ccccc1)N1CCN(CCC2CCCCC2)CC1 (centres unmarked) [Example 6]
 | 142 to 150 °C | COc1ccccc1C(C(=O)NCc1cc(C(F)(F)F)cc(C(F)(F)F)c1)N1CCN(C2CCCCC2)CC1 (centres unmarked) [Example 42]
 | 228 to 232 °C | O=C(NCc1cc(C(F)(F)F)cc(C(F)(F)F)c1)C(c1ccc(Br)cc1)N1CCN(C2CCCCC2)CC1 (centres unmarked) [Example 21]
 | > 240 °C | O=C(NCc1cc(C(F)(F)F)cc(C(F)(F)F)c1)C(c1cccc(Cl)c1)N1CCN(C2CCCCC2)CC1 (centres unmarked) [Example 30]
 | 210 °C | O=C(NCc1cc(C(F)(F)F)cc(C(F)(F)F)c1)C(c1cc(C(F)(F)F)cc(C(F)(F)F)c1)N1CCN(C2CCCCC2)CC1 (centres unmarked) [Example 24]
 | 155 to 172 °C | O=C(NCCc1cc(C(F)(F)F)cc(C(F)(F)F)c1)C(c1cccc2ccccc12)N1CCN(C2CCCCC2)CC1 (centres unmarked) [Example 38]
 | 85 to 92 °C | COc1ccccc1C(C(=O)NCCc1cc(C(F)(F)F)cc(C(F)(F)F)c1)N1CCN(C2CCCCC2)CC1 (centres unmarked) [Example 64]
 | 124 to 127 °C | O=C(NCc1cc(C(F)(F)F)cc(C(F)(F)F)c1)C(c1cccc(Br)c1)N1CCN(C2CCCCC2)CC1 (centres unmarked) [Example 27]
6.4 nM | 212 to 216 °C (dec.) | CN(CCc1cc(C(F)(F)F)cc(C(F)(F)F)c1)C(=O)C(c1ccc(Cl)c(Cl)c1)N1CCN(C2CCCCC2)CC1 (centres unmarked) [Example 58]
1 nM | > 240 °C (dec.) | CN(Cc1cc(C(F)(F)F)cc(C(F)(F)F)c1)C(=O)C(c1ccccc1)N1CCN(C2CCCCC2)CC1 (centres unmarked) [Example 4]
 | 210 to 218 °C | O=C(NCCc1cc(C(F)(F)F)cc(C(F)(F)F)c1)C(c1ccccc1Br)N1CCN(C2CCCCC2)CC1 (centres unmarked) [Example 62]
